The values that follow come from PubChem BioAssay AID192 (DTP/NCI, 2004).

SMILES strings stand for the structures. “And” between values parts separate entries of the source, which are not always exact repeats. Identical values can stand only once. Inconclusive results and toxic doses are left out.

For the experiment, the system named is BDF1 mice, B16 melanoma ip, median survival T/C. The experiment is described as follows: NCI In Vivo Anticancer Drug Screen. Data for tumor model B16 Melanoma (intraperitoneal) in B6D2F1 (BDF1) mice. The conditions noted are these: endpoint: median survival time, higher = longer survival. An outline of the steps:
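In this screen, activity was judged from survival or tumor size in treated versus vehicle-treated tumor-bearing mice, reported as T/C.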

Where [1] appears, read: dose: 30.0 mg/kg/injection, schedule: Q01DX009 (ip), vehicle: saline with Tween-80.
Where [2] appears, read: dose: 50.0 mg/kg/injection, schedule: Q01DX009 (ip), vehicle: saline with Tween-80.
Setting [3] is: dose: 100.0 mg/kg/injection, schedule: Q01DX009 (ip), vehicle: saline with Tween-80.
[4] abbreviates: dose: 200.0 mg/kg/injection, schedule: Q01DX009 (ip), vehicle: saline with Tween-80.
Where [5] appears, read: dose: 12.5 mg/kg/injection, schedule: Q01DX009 (ip), vehicle: saline with Tween-80.
[6] abbreviates: dose: 400.0 mg/kg/injection, schedule: Q01DX009 (ip), vehicle: saline with Tween-80.
The mark [7] stands for this setting: dose: 100.0 mg/kg/injection, schedule: Q01DX009 (ip), vehicle: Klucel (hydroxypropylcellulose) (HPC).
The mark [8] stands for this setting: dose: 200.0 mg/kg/injection, schedule: Q01DX009 (ip), vehicle: Klucel (hydroxypropylcellulose) (HPC).

Regarding `CC1(C)N=C(N)N=C(N)N1c1cccc(CCC(=O)Nc2ccc(S(=O)(=O)F)cc2)c1`, the T/C runs as follows: under setting [1], 113 % of control; (dose: 60.0 mg/kg/injection, schedule: Q01DX009 (ip), vehicle: saline with Tween-80) 123 % of control; (dose: 120.0 mg/kg/injection, schedule: Q01DX009 (ip), vehicle: saline with Tween-80) 110 % of control.
Regarding `CC(C)C(NC=O)C(=O)O` (centres undefined), the T/C is, setting by setting: under setting [2], 101 % of control; under setting [3], 97 % of control; under setting [4], 92 % of control.
Consider `Clc1ccc(C(c2ccccc2Cl)C(Cl)Cl)cc1` (centres undefined), for which the T/C by setting is: under setting [2], 95 % of control; under setting [3], 95 % of control; under setting [4], 90 % of control.
On to `CC(C)=CCC1=C(O)c2ccccc2C(=O)C1=O`, for which the T/C is, setting by setting: (dose: 6.25 mg/kg/injection, schedule: Q01DX009 (ip), vehicle: saline with Tween-80) 90 % of control; (dose: 8.33 mg/kg/injection, schedule: Q#B X027 (ip), vehicle: water) 100 % of control; under setting [5], 90 % of control; (dose: 16.66 mg/kg/injection, schedule: Q#B X027 (ip), vehicle: water) 103 % of control; (dose: 16.66 mg/kg/injection, schedule: Q#B X027 (sc), vehicle: water) 106 % of control; (dose: 25.0 mg/kg/injection, schedule: Q#A X018 (oral), vehicle: water) 90 % of control. Further, the T/C was 100 % of control (dose: 33.33 mg/kg/injection, schedule: Q#B X027 (ip), vehicle: water); 100 % of control (dose: 33.33 mg/kg/injection, schedule: Q#B X027 (oral), vehicle: water); 106 % of control (dose: 33.33 mg/kg/injection, schedule: Q#B X027 (sc), vehicle: water); 88 % of control and 97 % of control under setting [2]; 86 % of control (dose: 50.0 mg/kg/injection, schedule: Q#A X018 (oral), vehicle: water); 96 % of control (dose: 66.66 mg/kg/injection, schedule: Q#B X027 (ip), vehicle: water). Also, the T/C was 106 % of control (dose: 66.66 mg/kg/injection, schedule: Q#B X027 (oral), vehicle: water); 93 % of control (dose: 66.66 mg/kg/injection, schedule: Q#B X027 (sc), vehicle: water); 95 % of control under setting [3]; 106 % of control (dose: 100.0 mg/kg/injection, schedule: Q01DX018 (oral), vehicle: water); 100 % of control (dose: 100.0 mg/kg/injection, schedule: Q#A X018 (oral), vehicle: water); 120 % of control (dose: 133.33 mg/kg/injection, schedule: Q#B X027 (oral), vehicle: water). The T/C is, setting by setting: (dose: 133.33 mg/kg/injection, schedule: Q#B X027 (sc), vehicle: water) 93 % of control; (dose: 175.0 mg/kg/injection, schedule: Q01DX018 (oral), vehicle: water) 96 % of control; (dose: 175.0 mg/kg/injection, schedule: Q#A X018 (oral), vehicle: water) 113 % of control; under setting [4], 95 % of control; (dose: 200.0 mg/kg/injection, schedule: Q01DX009 (ip), vehicle: saline) 119 % of control; (dose: 250.0 mg/kg/injection, schedule: Q01DX018 (oral), vehicle: water) 106 % of control. In addition, the T/C (dose: 250.0 mg/kg/injection, schedule: Q#A X018 (oral), vehicle: water) is 106 % of control and the T/C (dose: 325.0 mg/kg/injection, schedule: Q01DX018 (oral), vehicle: water) was 113 % of control.
Consider `CC[C@](O)(C(=O)O)c1cc2n(c(=O)c1CO)Cc1cc3ccccc3nc1-2`, for which the T/C (dose: 0.79 mg/kg/injection, schedule: Q01DX009 (ip), vehicle: other) is 117 % of control; the T/C (dose: 1.0 mg/kg/injection, schedule: Q01DX009 (ip), vehicle: saline) is 115 % of control and 121 % of control; the T/C (dose: 2.0 mg/kg/injection, schedule: Q01DX009 (ip), vehicle: saline) was 117 % of control; the T/C (dose: 4.0 mg/kg/injection, schedule: Q01DX009 (ip), vehicle: saline) is 150 % of control.
`CCCCNC(=O)Nc1c(C)cccc1C`: the T/C (dose: 100.0 mg/kg/injection, schedule: Q01DX009 (ip), vehicle: gum acacia) is 95 % of control and the T/C (dose: 200.0 mg/kg/injection, schedule: Q01DX009 (ip), vehicle: gum acacia) is 94 % of control.
Take `COc1cc(OC)c2c(O)c3c(c(-c4ccc5cc6c(c(O)c5c4O)C(=O)CC(C)(O)C6)c2c1)CC(C)OC3C` (centres undefined): the T/C is, setting by setting: (dose: 0.5 mg/kg/injection, schedule: Q01DX009 (ip), vehicle: Klucel (hydroxypropylcellulose) (HPC)) 94 % of control; (dose: 1.0 mg/kg/injection, schedule: Q01DX009 (ip), vehicle: Klucel (hydroxypropylcellulose) (HPC)) 102 % of control; (dose: 2.0 mg/kg/injection, schedule: Q01DX009 (ip), vehicle: Klucel (hydroxypropylcellulose) (HPC)) 111 % of control.
As to `CCCCCCCCCCCC(c1ccccc1)[N+](C)(C)Cc1ccccc1` (centres undefined), the T/C is 94 % of control (dose: 0.25 mg/kg/injection, schedule: Q01DX009 (ip), vehicle: saline sonified); 110 % of control (dose: 0.5 mg/kg/injection, schedule: Q01DX009 (ip), vehicle: saline sonified); 105 % of control (dose: 1.0 mg/kg/injection, schedule: Q01DX009 (ip), vehicle: saline sonified); 102 % of control (dose: 2.0 mg/kg/injection, schedule: Q01DX009 (ip), vehicle: saline sonified).
Turning to `Clc1ccc2c(c1)C([P+](c1ccccc1)(c1ccccc1)c1ccccc1)c1cc(Cl)cc(Cl)c1-2` (centres undefined), the T/C runs as follows: under setting [3], 89 % of control; under setting [4], 95 % of control; under setting [6], 89 % of control.
With `CC(=O)Oc1ccc(Nc2c3ccccc3nc3ccccc23)cc1`, the T/C runs as follows: (dose: 1.87 mg/kg/injection, schedule: Q01DX009 (ip), vehicle: saline with Tween-80) 110 % of control; (dose: 3.75 mg/kg/injection, schedule: Q01DX009 (ip), vehicle: saline with Tween-80) 114 % of control; (dose: 7.5 mg/kg/injection, schedule: Q01DX009 (ip), vehicle: saline with Tween-80) 121 % of control; (dose: 29.3 mg/kg/injection, schedule: Q01DX009 (ip), vehicle: saline with Tween-80) 197 % of control; under setting [1], 156 % of control and 158 % of control; (dose: 40.0 mg/kg/injection, schedule: Q01DX009 (ip), vehicle: saline with Tween-80) 150 % of control.
In the case of `Cc1cc(C)c(NC(=O)Nc2cccc(Cl)c2)c(C)c1`, the T/C was 88 % of control under setting [7] and 94 % of control under setting [8].
Turning to `c1ccc2cc(-c3csc4ccccc34)ccc2c1`, the T/C runs as follows: (dose: 100.0 mg/kg/injection, schedule: Q04DX003 (ip), vehicle: Klucel (hydroxypropylcellulose) (HPC)) 91 % of control; (dose: 200.0 mg/kg/injection, schedule: Q04DX003 (ip), vehicle: Klucel (hydroxypropylcellulose) (HPC)) 97 % of control; (dose: 400.0 mg/kg/injection, schedule: Q04DX003 (ip), vehicle: Klucel (hydroxypropylcellulose) (HPC)) 102 % of control.
Consider `COc1cc(C(=O)OC(C)CN2CCN(C(=O)c3cc(OC)c(OC)c(OC)c3)CC2)cc(OC)c1OC` (centres undefined), for which the T/C was 116 % of control (dose: 12.5 mg/kg/injection, schedule: Q01DX009 (ip), vehicle: saline); 105 % of control (dose: 25.0 mg/kg/injection, schedule: Q01DX009 (ip), vehicle: saline); 100 % of control (dose: 50.0 mg/kg/injection, schedule: Q01DX009 (ip), vehicle: saline); 110 % of control (dose: 100.0 mg/kg/injection, schedule: Q01DX009 (ip), vehicle: saline).
For the compound `CCCCCCC#CC(=O)OC`, the T/C was 110 % of control under setting [5]; 93 % of control (dose: 25.0 mg/kg/injection, schedule: Q01DX009 (ip), vehicle: saline with Tween-80); 97 % of control and 100 % of control under setting [2].
In the case of `COc1cccc(Cc2ccncc2)c1OC`, the T/C by setting is: (dose: 25.0 mg/kg/injection, schedule: Q01DX009 (ip), vehicle: water) 104 % of control; (dose: 50.0 mg/kg/injection, schedule: Q01DX009 (ip), vehicle: water) 98 % of control; (dose: 100.0 mg/kg/injection, schedule: Q01DX009 (ip), vehicle: water) 98 % of control.
`O=C(c1ccncc1)c1c(Cc2ccccc2)ccc2ccccc12`: the T/C runs as follows: under setting [2], 100 % of control; under setting [3], 99 % of control; under setting [4], 95 % of control; under setting [6], 95 % of control.
As for `CCCCC(NC(=O)OC(C)(C)C)C(=O)O` (centres undefined), the T/C is 114 % of control under setting [7]; 104 % of control under setting [8]; 100 % of control (dose: 400.0 mg/kg/injection, schedule: Q01DX009 (ip), vehicle: Klucel (hydroxypropylcellulose) (HPC)).
